# Patent US20240287108A1, “nSMASE2 INHIBITOR PRODRUGS WITH ENHANCED ORAL AND BRAIN EXPOSURES” (The Johns Hopkins University, priority 2021, published 2024)
# Where two headings read alike, the source gives them in different places.
# What was measured:
# [1] = in vivo pharmacokinetic studies in mice (Example 1); set-up: species or system mouse; conditions: mice; for AUC / Tmax / Cmax: po
# Protocol: 1.2.1 In vitro metabolic stability assessment. In vitro metabolic stability assessment was performed using mouse plasma, and liver homogenates. For the liver homogenates, washed tissues were diluted 10-fold in 0.1 M potassium phosphate buffer and homogenized using a probe sonicator. To evaluate the stability of the intact prodrug over time, each of the tissue matrix were aliquoted to 1 mL and then spiked with 10 μM of corresponding prodrugs followed by incubation in an orbital shaker at 37° C. for 1 h (in triplicate). Sample from each incubation at predetermined time points (0 min, and 1 h) was quenched with three volumes of acetonitrile containing the internal standard (IS: losartan: 0.5 μm). Samples were vortex-mixed for 30 secs and centrifuged at 10,000 RPM for 10 min at 4° C. Disappearance of the intact compound was measured using liquid chromatography tandem mass spectrometry (LC-MS/MS). 1.2.2 In vivo pharmacokinetic studies in mice. Male CD-1 mice (n=3) were used to study the pharmacokinetic profiles of representive prodrug compounds. […] Blood and brain were collected after sacrificing the mice at predetermined time points. Plasma was harvested from blood by centrifugation at 3,000 RPM for 15 min and stored at −80° C. Brain tissues were harvested following blood collection and immediately snap frozen in liquid nitrogen and stored at −80° C. until LC-MS/MS analysis. […] Brain tissues were diluted 1:5 w/v with acetonitrile containing losartan (0.5 μm) and homogenized, followed by vortex-mixing and centrifugation at 10,000 RPM for 10 min at 4° C. A 50 μL aliquot of the supernatant was diluted with 50 μL of water and transferred to 250 μL polypropylene autosampler vials sealed with teflon caps. Then, 2 μL of the sample was injected into the LC-MS/MS system for analysis.
# [2] = in vitro stability in CES1−/− mouse brain homogenates; format: in vitro ADME; conditions: CES1−/− mouse brain homogenate, 10 μM, 37° C.
# Protocol: (§1) All synthesized prodrugs were next screened for in vitro stability in carboxylesterase 1 knockout (CES1^−/−) mouse plasma, as well as CES1^−/− mouse brain and liver homogenates (Table 2-1). We have previously reported that CES1^−/− mouse model recapitulates human prodrug metabolism.
# (§2) For the tissue homogenates, washed tissues were diluted 10-fold in 0.1 M potassium phosphate buffer and homogenized using a probe sonicator. To evaluate the stability of the intact prodrug over time, each of the crude homogenates and plasma were aliquoted to 1 mL and then spiked with a final assay concentration of 10 μM of each prodrug followed by incubation in an orbital shaker at 37° C. for 1 h (in triplicate). Sample from each incubation at predetermined time points (0 min, and 1 h) was quenched with three volumes of acetonitrile containing the internal standard (IS; losartan: 0.5 μm). Samples were vortex-mixed for 30 secs and centrifuged at 10,000×g for 10 min at 4° C. Disappearance of intact prodrugs from these samples were performed on a Dionex ultra-high-performance LC system coupled with Q Exactive Focus orbitrap mass spectrometer (Thermo Fisher Scientific Inc., Waltham MA). […] The mobile phase consisted of 0.1% formic acid in water and 0.1% formic acid in acetonitrile. Pumps were operated at a flow rate of 0.4 mL/min for 9 min using gradient elution. The mass spectrometer controlled by Xcalibur software 4.0.27.13 (Thermo Scientific) was operated with a heated electrospray ionization (HESI) ion source in positive ionization mode. Quantification of the prodrugs were performed in the full-scan mode (from m/z 50 to 1600) by comparing t=0 samples with t=60 min samples.
# [3] = in vitro stability in CES1−/− mouse plasma; format: in vitro ADME; conditions: 10 μM
# Protocol: as §1, with “metabolism. Tenora et al., 2019.” for “metabolism.”
# Zimmermann et al., 2018. For the tissue homogenates, washed tissues were diluted 10-fold in 0.1 M potassium phosphate buffer and homogenized using a probe sonicator. To evaluate the stability of the intact prodrug over time, each of the crude homogenates and plasma were aliquoted to 1 mL and then spiked with a final assay concentration of 10 μM of each prodrug followed by incubation in an orbital shaker at 37° C. for 1 h (in triplicate). Sample from each incubation at predetermined time points (0 min, and 1 h) was quenched with three volumes of acetonitrile containing the internal standard (IS; losartan: 0.5 μm). Samples were vortex-mixed for 30 secs and centrifuged at 10,000×g for 10 min at 4° C. Disappearance of intact prodrugs from these samples were performed on a Dionex ultra-high-performance LC system coupled with Q Exactive Focus orbitrap mass spectrometer (Thermo Fisher Scientific Inc., Waltham MA). The separation of analytes was achieved using the Agilent Eclipse Plus column (100×2.1 mm i.d.; maintained at 35° C.) packed with a 1.8 μm C18 stationary phase. The mobile phase consisted of 0.1% formic acid in water and 0.1% formic acid in acetonitrile. Pumps were operated at a flow rate of 0.4 mL/min for 9 min using gradient elution. The mass spectrometer controlled by Xcalibur software 4.0.27.13 (Thermo Scientific) was operated with a heated electrospray ionization (HESI) ion source in positive ionization mode. Quantification of the prodrugs were performed in the full-scan mode (from m/z 50 to 1600) by comparing t=0 samples with t=60 min samples.
# [4] = in vitro stability in CES1−/− mouse liver homogenates; format: in vitro ADME; conditions: CES1−/− mouse liver homogenate, 10 μM, 37° C.
# Protocol: as §1, §2
# [5] = male, CD-1, mouse, intact prodrug, brain, 10 mg/kg eqv
# [6] = male, CD-1, mouse, intact prodrug, plasma, 10 mg/kg eqv
# [7] = CES1−/− (carboxylesterase 1 knockout), mouse, plasma
Compound,"Stability in mouse (% remaining at 1h) Mean + Std Error, Brain [2] [%]","Stability in mouse (% remaining at 1h) Mean + Std Error, Plasma ([3]; CES1−/− mouse plasma, 37° C.) [%]","Stability in mouse (% remaining at 1h) Mean + Std Error, Liver [4] [%]",also measured
COc1cc(-c2nc(-c3ccccc3)c(-c3cccs3)[nH]2)cc(OC)c1OC(=O)c1ccc[n+](C)c1.[I-] [Compound 6],–,–,–,brain levels of DPTIP ([1]; oral 10 mg/kg DPTIP equivalent): approximately 150 nM
"CCCCCC(=O)Oc1c(OC)cc(-c2nc(-c3ccccc3)c(-c3cccs3)[nH]2)cc1OC [Compound P2, 2,6-Dimethoxy-4-(4-phenyl-5-(thiophen-2-yl)-1H-imidazol-2-yl)phenyl hexanoate]",–,–,–,"Kp ([1]; male, CD-1, mouse, brain and plasma, oral, intact prodrug, 10 mg/kg eqv, read-out: Brain:Plasma ratio): 0.23; AUC [1, 5]: 1.66 nM·h; Tmax [1, 5]: 15 min; Cmax ([1]; male, CD-1, mouse, intact prodrug, brain, 10 mg/kg eqv, read-out: Cmax): 9.8 ± 0.6 nM; AUC [1, 6]: 7.04 nM·h; Tmax [1, 6]: 15 min; Cmax ([1]; male, CD-1, mouse, intact prodrug, plasma, 10 mg/kg eqv, read-out: Cmax): 51.1 ± 4.6 nM"
"COc1cc(-c2nc(-c3ccccc3)c(-c3cccs3)[nH]2)cc(OC)c1OC(=O)C(C)(C)C [Compound P4, 2,6-Dimethoxy-4-(4-phenyl-5-(thiophen-2-yl)-1H-imidazol-2-yl)phenyl pivalate]",93 ± 1,–,–,–
"COc1cc(-c2nc(-c3ccccc3)c(-c3cccs3)[nH]2)cc(OC)c1OC(=O)N(C)C [Compound P5, 2,6-Dimethoxy-4-(4-phenyl-5-(thiophen-2-yl)-1H-imidazol-2-yl)phenyl dimethylcarbamate]",100 ± 2,96 ± 3,100 ± 1,"Cmax ([1]; male, CD-1, mouse, in vivo, 10 mg/kg, oral 10 mg/kg DPTIP equivalent, read-out: plasma Cmax of intact prodrug): 4300 nM; improved oral absorption as intact versus DPTIP ([1]; plasma Cmax, oral 10 mg/kg DPTIP equivalent): 10 ×"
"CCCCCN(C)C(=O)Oc1c(OC)cc(-c2nc(-c3ccccc3)c(-c3cccs3)[nH]2)cc1OC [Compound P7, 2,6-Dimethoxy-4-(5-phenyl-4-(thiophen-2-yl)-1H-imidazol-2-yl)phenyl methyl (pentyl) carbamate]",–,50 ± 2,85 ± 3,–
"CCCCCNC(=O)Oc1c(OC)cc(-c2nc(-c3ccccc3)c(-c3cccs3)[nH]2)cc1OC [Compound P8, 2,6-Dimethoxy-4-(5-phenyl-4-(thiophen-2-yl)-1H-imidazol-2-yl)phenyl pentylcarbamate]",–,60 ± 6,83 ± 2,–
"CCCCCCCNC(=O)Oc1c(OC)cc(-c2nc(-c3ccccc3)c(-c3cccs3)[nH]2)cc1OC [Compound P9, 2,6-Dimethoxy-4-(5-phenyl-4-(thiophen-2-yl)-1H-imidazol-2-yl)phenyl heptylcarbamate]",84 ± 4,60 ± 4,97 ± 4,–
"CCC1CCCC(CC)N1C(=O)Oc1c(OC)cc(-c2nc(-c3ccccc3)c(-c3cccs3)[nH]2)cc1OC (centres unmarked) [Compound P10, 2,6-Dimethoxy-4-(5-phenyl-4-(thiophen-2-yl)-1H-imidazol-2-yl)phenyl 2,6-diethylpiperidine-1-carboxylate]",90 ± 1,–,51 ± 1,"Stability in mouse (% remaining at 1h) Mean + Std Error, Plasma [3, 7]: 78 ± 5%"
"CCCN(CCC)C(=O)Oc1c(OC)cc(-c2nc(-c3ccccc3)c(-c3cccs3)[nH]2)cc1OC [Compound P11, 2,6-Dimethoxy-4-(5-phenyl-4-(thiophen-2-yl)-1H-imidazol-2-yl)phenyl dipropylcarbamate]",95 ± 4,99 ± 2,62 ± 4,–
"COc1cc(-c2nc(-c3ccccc3)c(-c3cccs3)[nH]2)cc(OC)c1OC(=O)N1C2CCCC1CC2 [Compound P12, 2,6-Dimethoxy-4-(5-phenyl-4-(thiophen-2-yl)-1H-imidazol-2-yl)phenyl 8-azabicyclo[3.2.1]octane-8-carboxylate]",–,–,–,"Stability in mouse (% remaining at 1h) Mean + Std Error, Plasma [3, 7]: 85 ± 9%"
"COc1cc(-c2nc(-c3ccccc3)c(-c3cccs3)[nH]2)cc(OC)c1OC(=O)N1C2CCC1CC(N1CCCCC1)C2 (centres unmarked) [Compound P13, 2,6-Dimethoxy-4-(5-phenyl-4-(thiophen-2-yl)-1H-imidazol-2-yl)phenyl 3-(piperidin-1-yl)-8-azabicyclo[3.2.1]octane-8-carboxylate]",84 ± 1,87 ± 2,78 ± 4,–
"COc1cc(-c2nc(-c3ccccc3)c(-c3cccs3)[nH]2)cc(OC)c1OP(=O)(O)O [Compound P14, 2,6-Dimethoxy-4-(4-phenyl-5-(thiophen-2-yl)-1H-imidazol-2-yl)phenyl dihydrogen phosphate]",102 ± 2,91 ± 4,55 ± 1,–
"COc1cc(-c2nc(-c3ccccc3)c(-c3cccs3)[nH]2)cc(OC)c1OCOP(=O)(O)O [Compound P15, (2,6-Dimethoxy-4-(4-phenyl-5-(thiophen-2-yl)-1H-imidazol-2-yl)phenoxy) methyl dihydrogen phosphate]",–,–,21 ± 0,–
